This is an account of results in US6417159B1 (Queen's University at Kingston, priority 1996, dated 2002).

For test [1], the system named is embryonic 19 day rat DRG neurons. Nature of the test: NGF-mediated neurite growth by ED19 rat DRG neurons. Format: cell-based. On the procedure:
Dissociated cells enriched for sensory neurons from DRG of ED8 chick or ED19 rat were prepared as described in detail previously (Sutter et al., 1979a). ED19 rat DRG dissociates were not pre-plated pror to bioassay. Cells were seeded into wells of Terasaki plates previously treated with poly-D-lysine at 700-900 per well in supplemented Ham's F12 medium with 2.5% fetal calf serum and NGF at concentrations between 0.04 and 40 pM. The cells were incubated with the additives as described at 37° C., 5% CO2, and scored at various times for neurite growth by counting all cells on the lower horizontal surface of the wells, which is approximately 15% of the surface area of the top of the tapered wells.
A Leitz Diavert inverted microscope with phase optics was used to score neurite growth. For both PC12 cells and sensory neurons, a neurite was scored as such if its calibre from origin to terminal was approximately the same and the length was equal to or greater than 1.5 cell body diameters.

The test system of test [2] is PC12 cells. Description: MTT assay of mitochondrial function. It counts as cell-based, rat. On the procedure:
A colorimetric assay measuring the number and respiratory activity of surviving cells (Mossman, 1983) was used to monitor the effect of the synthetic peptides on PC12 cells. Culture plates (96-233, Flow, flat bottom) were seeded with 4,000 cells per well and received treatment identical to the cells read for neurite formation. At the indicated times, the medium was removed from the wells with a Pasteur pipette and replaced with 110 μl of RPMI+10% fetal calf serum containing 0.45 mg·ml^−1 MTT (Sigma) and the plate were returned to a humidified, 5% CO2 incubator for 4 hours. 100 μl of 0.4N HCl in isopropanol was then added to each well with trituration (approximately 50 times) to solublize the formazan. The plates were read 10 minutes later in a flow Titertek Multiskan equipped with a 570 nm filter, and the optical density values obtained were corrected for cell-free blank. In each experiment, the values are the average of at least triplicate determinations normalized to its control. The MTT dye conversion was linear with number of viable cells over the range seeded, i.e. 2000 to 10,000 cells per well.
For orientation: Formazan colour is commonly taken as a measure of viable cells.

The subject of test [3] is PC12 cells. Nature of the test: Binding of [125I]NGF to PC12 cells. Set-up: species or system rat. As to conditions: co-incubated with [125I]NGF. The procedure: PC12 cells were removed from culture dishes with CMF, washed, and incubated at a concentration of 10^6 per ml in Hepes-Krebs-Ringer (HKR) buffer buffer with 1 mg·ml^−1 BSA for 90 minutes at 37° C. in the presence of 40 pM [^125I]NGF in the absence and presence of excess unlabeled NGF, and in the absence and presence of R3 peptide. Aliquots of 100 μl were removed in replicates and mircocentrifuged at 10,000×g for 1 minute. Supernatants were removed, tips were cut from the microcentrifuge tube and counted in a gamma counter. Specific binding was defined as the difference between binding of the ligand in the absence and presence of unlabeled NGF, and fractional specific binding in the absence and presence of R3 peptide was compared. Studies of [^125I]NGF uptake into PC12 and PC12^nnr5 cells were carried out in the absence and presence of 10 μM R3 peptide and following a 24-hour exposure of PC12 cultures to 10 μM R3 peptide. Cells were eposed to 20 pM or 0.2 nM [^125I]NGF for periods of time up to 240 minutes (steady state) at 37° C. The cells were then briefly acid-washed as described by Bernd and Greene (1984), and aliquots were prepared for gamma counting as described. NGF was radioiodinated as described in Sutter et al. (1979b).

In test [4] the test system is PC12 cells. Description: Basic fibroblast growth factor-mediated neurite growth by PC12 cells. Format: cell-based, rat.

With LDALLAALRRIQR [R3], the “Effect on NGF-mediated neurite growth, co-incubation, in words” value in test [1] is reported as “enhancing effect”. Besides, the “Mitochondrial succinate dehydrogenase activity (MTT), in words” value in the test on PC12 cells [2] is on record as “not enhanced”. In addition, the “Effect on [125I]NGF binding, in words” value in the test with PC12 cells [3] was “no effect on steady-state total or non-displaceable binding”. In the test on PC12 cells [4], the “Influence on basic fibroblast growth factor-mediated neurite growth, in words” value is listed as “no influence”.
